Results reported in patent publication US20240383870A1, “HETEROCYCLIC ALDEHYDE TRAPPING COMPOUNDS AND USES THEREOF” (Aldeyra Therapeutics, Inc., priority 2021, published 2024).

Assays:
Type in all cases: in vivo
eotaxin = assay: Acute LPS-induced sepsis in C57BL/6 mice: eotaxin cytokine detection assay; details: 200 mpk PO; LPS-challenged mice, plasma at 6.5 h; unpaired t-test vs vehicle
IL-6 = assay: Acute LPS-induced sepsis in C57BL/6 mice: IL-6 cytokine detection assay; details: 200 mpk PO; LPS-challenged mice, plasma at 6.5 h; unpaired t-test vs vehicle
Description: FIG. 11 is a graph showing the results of an IL-6 cytokine detection assay in samples collected from mouse subjects after administration of compounds of the present disclosure.
(§1) The primary objective of this study was to collect plasma samples of lipopolysaccharide (LPS) challenged C57BL/6 mice after dose of test compounds to provide a cytokine profile as impacted by prophylactic treatments. This study models acute sepsis, which is a systemic inflammatory syndrome initiated by Gram-negative and Gram-positive bacteria and fungi which infect the lungs, abdomen, bloodstream, and renal or genitourinary tracts. Sepsis patients ultimately die of multiorgan failure which is caused by extensive tissue hypo-oxygenation due to ongoing microvascular leakage, disseminated intravascular coagulation, compromised energy production, and metabolic alterations. Sepsis is characterized by an early systemic inflammatory response phase featuring symptoms, such as tachycardia, fever, hyperventilation, and activation of the complement and coagulation cascades. However, it is now appreciated that a compensatory anti-inflammatory response phase follows, characterized by neuroendocrine-mediated immunosuppression. Since these processes are the result of interaction between cells of inflammation and organs, investigation of the treatment of this syndrome requires the use of intact animal models. The use of ten mice per group allows useful statistical modelling of the results.
(§2) For the data shown in Table 2A, 103 mice (female, 18-22 gram, C57BL/6) were purchased from ENVIGO. The mice were housed in 20 cages of 5 mice per cage with 1 cage of 3 mice as extra. The cages had filter tops and autoclaved bedding, and the animals were placed in quarantine with daily inspection. The treatment groups are detailed in Table 2A below. 10 mice were included in each group. The mice were dosed by oral gavage (PO) at 10 ml/kg as per the table below. MC=methyl cellulose.
as §2, with “2B, 185” for “2A, 103”, “37” for “20”, “cage.” for “cage with 1 cage of 3 mice as extra.”, “2B” for “2A”, “(P0)” for “(PO)”
(§3) At T=0 h, the mice were dosed with one of the test compounds as described in the above table.
(§4) At T=0.5 h, the mice were injected IP with 1.5 mg/kg […] (Sigma).
(§5) At T=6.5 h, all mice were anesthetized and exsanguinated into pre-chilled EDTA-treated tubes. […]
(§6) A 32-plex cytokine panel was obtained from Eve Technologies. Each cytokine was assessed based against a 7 point curve range in duplicate. […]

IL-7 = assay: Acute LPS-induced sepsis in C57BL/6 mice: IL-7 cytokine detection assay; details: LPS-challenged mice, plasma at 6.5 h, unpaired t-test vs vehicle
IL-13 = assay: Acute LPS-induced sepsis in C57BL/6 mice: IL-13 cytokine detection assay; details: 200 mpk PO; LPS-challenged mice, plasma at 6.5 h; unpaired t-test vs vehicle
Description: FIG. 17 is a graph showing the results of an IL-13 cytokine detection assay in samples collected from mouse subjects after administration of compounds of the present disclosure.
as §1, §2
as §2, with “2B, 185” for “2A, 103”, “37” for “20”, “cage.” for “cage with 1 cage of 3 mice as extra.”, “2B” for “2A”, “(P0)” for “(PO)”
as §3, §4
(§7) At T=6.5 h, all mice were anesthetized and exsanguinated into pre-chilled EDTA-treated tubes. The blood was processed to plasma which was stored in labeled 0.5 polypropylene snap-cap tubes (0.5 mL Eppendorf Safe-Lock Tubes (Fisher Scientific) at −80° C.
(§8) Preparation of vehicle: 1.0 gram of methyl cellulose (Sigma) was dissolved in 200 mL of water (USP purified) to make a solution of 0.5% methyl cellulose in water. Preparation of LPS solution: 6 mg of LPS (from Escherichia Coli 055:B5, Cat #L2880, Sigma Lot #057m4013) was dissolved in 20 ml of saline to give a LPS solution of 0.3 mg/ml. All mice were injected with 5 ml/kg (1.5 mg/kg) at the scheduled time by intraperitoneal injection.
A 32-plex cytokine panel was obtained from Eve Technologies. Each cytokine was assessed based against a 7 point curve range in duplicate. The average of the two replicate analyses was used for statistics. […]

IL-15 = assay: Acute LPS-induced sepsis in C57BL/6 mice: IL-15 cytokine detection assay; details: LPS-challenged mice, plasma at 6.5 h, unpaired t-test vs vehicle
IL-17 = assay: Acute LPS-induced sepsis in C57BL/6 mice: IL-17 cytokine detection assay; details: 200 mpk PO; LPS-challenged mice, plasma at 6.5 h; unpaired t-test vs vehicle
Description: FIG. 19 is a graph showing the results of an IL-17 cytokine detection assay in samples collected from mouse subjects after administration of compounds of the present disclosure.
as §1
as §2, with “The mice were dosed by oral gavage (PO) at 10 ml/kg as per the table below.” left out
as §2, with “2B, 185” for “2A, 103”, “37” for “20”, “cage.” for “cage with 1 cage of 3 mice as extra.”, “2B” for “2A”, “(P0)” for “(PO)”
as §3, §4, §5, §6

KC = assay: Acute LPS-induced sepsis in C57BL/6 mice: KC cytokine detection assay; details: 200 mpk PO; LPS-challenged mice, plasma at 6.5 h; unpaired t-test vs vehicle
Description: FIG. 20 is a graph showing the results of a KC cytokine detection assay in samples collected from mouse subjects after administration of compounds of the present disclosure.
as §1, §2
as §2, with “2B, 185” for “2A, 103”, “37” for “20”, “cage.” for “cage with 1 cage of 3 mice as extra.”, “2B” for “2A”, “(P0)” for “(PO)”
as §3, §4, §7, §8
(§9) A 32-plex cytokine panel was obtained from Eve Technologies. Each cytokine was assessed based against a 7 point curve range in duplicate. The average of the two replicate analyses was used for statistics. Unpaired t-tests were performed using Excel™ contrasting vehicle against each treatment group. One star indicates P<0.05. Two stars indicates P<0.01. Three stars indicates P<0.001. Four stars indicates P<0.0001. Most, but not all, statistically significant results are indicated with star(s).

[1] = system: leukemia inhibitory factor (LIF); assay: Acute LPS-induced sepsis in C57BL/6 mice: leukemia inhibitory factor (LIF) cytokine detection assay; details: 200 mpk PO; LPS-challenged mice, plasma at 6.5 h; unpaired t-test vs vehicle
Description: FIG. 21 is a graph showing the results of a leukemia inhibitory factor (LIF) cytokine detection assay in samples collected from mouse subjects after administration of compounds of the present disclosure. LIF is an interleukin 6 class cytokine that affects cell growth by inhibiting differentiation.
as §1, §2
as §2, with “2B, 185” for “2A, 103”, “37” for “20”, “cage.” for “cage with 1 cage of 3 mice as extra.”, “2B” for “2A”, “(P0)” for “(PO)”
as §3, §4, §7, §8, §6

MCP-1(CCL2) = assay: Acute LPS-induced sepsis in C57BL/6 mice: MCP-1(CCL2) cytokine detection assay; details: LPS-challenged mice, plasma at 6.5 h, unpaired t-test vs vehicle
MIP2(CXCL2) = assay: Acute LPS-induced sepsis in C57BL/6 mice: MIP2(CXCL2) cytokine detection assay; details: LPS-challenged mice, plasma at 6.5 h, unpaired t-test vs vehicle
Description: FIG. 27 is a graph showing the results of a MIP2(CXCL2) cytokine detection assay in samples collected from mouse subjects after administration of compounds of the present disclosure.
as §1
as §2, with “The mice were dosed by oral gavage (PO) at 10 ml/kg as per the table below.” left out
as §2, with “2B, 185” for “2A, 103”, “37” for “20”, “cage.” for “cage with 1 cage of 3 mice as extra.”, “2B” for “2A”, “(P0)” for “(PO)”
as §3, §4, §5, §6

TNFα = assay: Acute LPS-induced sepsis in C57BL/6 mice: TNFα cytokine detection assay; details: 200 mpk PO; LPS-challenged mice, plasma at 6.5 h; unpaired t-test vs vehicle
Description: FIG. 29 is a graph showing the results of a TNFα cytokine detection assay in samples collected from mouse subjects after administration of compounds of the present disclosure.
as §1
as §2, with “cellulose. […]” for “cellulose.”
as §6

M-CSF (CSF1) = assay: Acute LPS-induced sepsis in C57BL/6 mice: M-CSF (CSF1) cytokine detection assay; details: LPS-challenged mice, plasma at 6.5 h, unpaired t-test vs vehicle
Description: FIG. 24 is a graph showing the results of an M-CSF (CSF1) cytokine detection assay in samples collected from mouse subjects after administration of compounds of the present disclosure. M-CSF causes hematopoietic stem cells to differentiate into macrophages.
as §1, §2
as §2, with “2B, 185” for “2A, 103”, “37” for “20”, “cage.” for “cage with 1 cage of 3 mice as extra.”, “2B” for “2A”, “(P0)” for “(PO)”
as §3, §4, §7, §8, §9

IL-10 = assay: Acute LPS-induced sepsis in C57BL/6 mice: IL-10 cytokine detection assay; details: LPS-challenged mice, plasma at 6.5 h, unpaired t-test vs vehicle
MIP-1a(CCL3) = assay: Acute LPS-induced sepsis in C57BL/6 mice: MIP-1a(CCL3) cytokine detection assay; details: 100 mpk IP; LPS-challenged mice, plasma at 6.5 h; unpaired t-test vs vehicle
IL-3 = assay: Acute LPS-induced sepsis in C57BL/6 mice: IL-3 cytokine detection assay; details: 200 mpk PO; LPS-challenged mice, plasma at 6.5 h; unpaired t-test vs vehicle

CC(O)(c1sc2cccc(Br)c2c1N)C(F)(F)F (stereo not drawn) [Compound I-2, 2-(3-amino-4-bromobenzo[b]thiophen-2-yl)-1,1,1-trifluoropropan-2-ol]
Eotaxin: significant cytokine change vs. vehicle (eotaxin): ** (Two stars indicates P<0.01) | IL-6: significant cytokine change vs. vehicle (IL-6): **** (Four stars indicates P<0.0001) | IL-7: significant cytokine change vs. vehicle (IL-7; 200 mpk PO): ** (Two stars indicates P<0.01) | IL-13: significant cytokine change vs. vehicle (IL-13): **** (Four stars indicates P<0.0001) | IL-15: significant cytokine change vs. vehicle (IL-15; 200 mpk PO): ** (Two stars indicates P<0.01) | IL-17: significant cytokine change vs. vehicle (IL-17): *** (Three stars indicates P<0.001) | KC: significant cytokine change vs. vehicle (KC): *** (Three stars indicates P<0.001) | LIF: significant cytokine change vs. vehicle [1]: ** (Two stars indicates P<0.01) | MCP-1: significant cytokine change vs. vehicle (MCP-1(CCL2); 200 mpk PO): *** (Three stars indicates P<0.001) | MIP-2: significant cytokine change vs. vehicle (MIP2(CXCL2); 200 mpk PO): *** (Three stars indicates P<0.001) | TNFa: significant cytokine change vs. vehicle (TNFα): **** (Four stars indicates P<0.0001)

COc1ccc2c(c1)NC(=O)[C@@H](CO)N2 [Compound I-7, (R)-3-(Hydroxymethyl)-7-methoxy-3,4-dihydroquinoxalin-2(1H)-one]
IL-6: significant cytokine change vs. vehicle (IL-6): * (One star indicates P<0.05) | KC: significant cytokine change vs. vehicle (KC): * (One star indicates P<0.05) | MCP-1: significant cytokine change vs. vehicle (MCP-1(CCL2); 200 mpk PO): * (One star indicates P<0.05) | M-CSF: significant cytokine change vs. vehicle (M-CSF (CSF1); 200 mpk PO): *** (Three stars indicates P<0.001) | TNFa: significant cytokine change vs. vehicle (TNFα): * (One star indicates P<0.05)

CC(O)(c1cccc2[nH]nc(N)c12)C(F)(F)F (stereo not drawn) [Compound I-9, 2-(3-amino-1H-indazol-4-yl)-1,1,1-trifluoropropan-2-ol]
IL-7: significant cytokine change vs. vehicle (IL-7; 100 mpk IP): *** (Three stars indicates P<0.001) | IL-10: significant cytokine change vs. vehicle (IL-10; 100 mpk IP): **** (Four stars indicates P<0.0001) | IL-15: significant cytokine change vs. vehicle (IL-15; 100 mpk IP): ** (Two stars indicates P<0.01) | MCP-1: significant cytokine change vs. vehicle (MCP-1(CCL2); 100 mpk IP): * (One star indicates P<0.05) | MIP-1a: significant cytokine change vs. vehicle (MIP-1a(CCL3)): ** (Two stars indicates P<0.01) | MIP-2: significant cytokine change vs. vehicle (MIP2(CXCL2); 100 mpk IP): * (One star indicates P<0.05)

CC(O)(c1sc2ccc(C(F)(F)F)cc2c1N)C(F)(F)F (stereo not drawn) [Compound I-16, 2-(3-Amino-5-(trifluoromethyl)benzo[b]thiophen-2-yl)-1,1,1-trifluoropropan-2-ol]
IL-3: significant cytokine change vs. vehicle (IL-3): * (One star indicates P<0.05) | IL-10: significant cytokine change vs. vehicle (IL-10; 200 mpk PO): ** (Two stars indicates P<0.01) | MCP-1: significant cytokine change vs. vehicle (MCP-1(CCL2); 200 mpk PO): * (One star indicates P<0.05) | M-CSF: significant cytokine change vs. vehicle (M-CSF (CSF1); 200 mpk PO): **** (Four stars indicates P<0.0001)

CC(C)(O)c1cc2occc2cc1N [Compound I-22, 2-(5-Aminobenzofuran-6-yl) propan-2-ol]
M-CSF: significant cytokine change vs. vehicle (M-CSF (CSF1); 100 mpk PO): ** (Two stars indicates P<0.01)
